Laboratory results taken from PubChem BioAssay (NCI).
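Where inhibition never reached the appropriate level, the endpoint shown equals the highest concentration tested. Otherwise, values were interpolated linearly from a five-concentration, 48-hour dose response in 96-well plates. GI50 = concentration required for 50% inhibition of growth. TGI: concentration producing complete growth inhibition.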

How the values were obtained:
Experiment in all cases: NCI tumour cell line growth inhibition, 48 h
786-0 renal = tested on: 786-0 renal
CAKI-1 renal = tested on: CAKI-1 renal
CCRF-CEM leukemia = tested on: CCRF-CEM leukemia
HCT-116 colon = tested on: HCT-116 colon
MDA-MB-231 breast = tested on: MDA-MB-231 breast
SK-OV-3 ovarian = tested on: SK-OV-3 ovarian
SN12C renal = tested on: SN12C renal
SNB-75 CNS = tested on: SNB-75 CNS
SW-620 colon = tested on: SW-620 colon
T-47D breast = tested on: T-47D breast

| SMILES | GI50 (786-0 renal) [µM] | TGI (786-0 renal) [µM] | GI50 (CAKI-1 renal) [µM] | TGI (CAKI-1 renal) [µM] | GI50 (CCRF-CEM leukemia) [µM] | TGI (CCRF-CEM leukemia) [µM] | GI50 (HCT-116 colon) [µM] | TGI (HCT-116 colon) [µM] | GI50 (MDA-MB-231 breast) [µM] | TGI (MDA-MB-231 breast) [µM] | GI50 (SK-OV-3 ovarian) [µM] | TGI (SK-OV-3 ovarian) [µM] | GI50 (SN12C renal) [µM] | TGI (SN12C renal) [µM] | GI50 (SNB-75 CNS) [µM] | TGI (SNB-75 CNS) [µM] | GI50 (SW-620 colon) [µM] | TGI (SW-620 colon) [µM] | GI50 (T-47D breast) [µM] | TGI (T-47D breast) [µM] |
| --- | --- | --- | --- | --- | --- | --- | --- | --- | --- | --- | --- | --- | --- | --- | --- | --- | --- | --- | --- | --- |
| Cn1cc(-c2cc(-c3cn(C)c4ccccc34)[nH]n2)c2ccccc21 | 14.1 | 41.2 | > 100 | > 100 | 14.4 | 29.3 | 19 | > 100 | 8.06 | > 100 | 31.6 | > 100 | 1.95 | 23.1 | 18.4 | 69.9 | > 100 | > 100 | 79.7 | > 100 |
| S=c1ssnc1-c1cc2ccccc2o1 | 16.5 | 34.8 | 10 | 26.1 | 3.23 | > 100 | 9.3 | 36.8 | 13.3 | 29.4 | 18.7 | 39.2 | 13.8 | 32.1 | 23.3 | 95.8 | 12.7 | 27.6 | 21.9 | > 100 |
| N=C(N)c1ccc2oc3ccc(C(=N)N)cc3c(=O)c2c1 |  | > 100 |  | > 100 |  | > 100 |  | > 100 |  | > 100 |  |  |  | > 100 |  | > 100 |  | > 100 |  | > 100 |
| C=CCC(N[C@@H](CO)c1ccccc1)c1ccc2ccccc2n1 (stereo partly specified) | > 100 | > 100 | > 100 | > 100 | 46.1 | > 100 | > 100 | > 100 | 45.8 | > 100 | > 100 | > 100 | 67.5 | > 100 | 51.2 | > 100 | > 100 | > 100 | 61.1 | > 100 |
| CCSC[C@@H]1C[C@](O)(c2ccccc2)[C@@H](c2ccccc2)O1 | > 100 | > 100 | > 83.8 | > 100 | > 71.5 | > 100 | 58.6 | > 100 | > 95 | > 100 | > 100 | > 100 | > 94.5 | > 100 | 61.4 | > 100 | > 100 | > 100 | 49 | > 100 |
| CC(C)(O)C1COC2=C1C(=O)c1ccccc1C2=O (stereo unspecified) |  | > 100 |  | > 100 |  | > 100 |  | 66.9 |  | > 100 |  | > 100 |  | 77.8 |  | 82 |  | 50.4 |  | > 100 |
| CCCCCCCCCCCC/C=C\CC[C@@H](O)[C@H](O)CC[C@H](O)[C@@H]1CC[C@@H](CCCCCCCC2=C[C@H](C)OC2=O)O1 | 15.7 | 40.3 |  | 35.7 | 6.82 | > 100 | 0.231 | 27.1 | 12.4 | 35.3 |  |  | 13 | 31 | 12.8 | 29.1 | 23.4 | > 100 | 2.85 | 21.5 |
